Measured values taken from publication PMC7973644, “Bioanalytical screening of low levels of dioxins and dioxin-like PCBs in pig meat (pork) for checking compliance with EU maximum and action levels using highly sensitive “third generation” recombinant H4L7.5c2 rat hepatoma cells” (Environmental Sciences Europe, 2021).

Key:
[1] = molecular target: T1, aryl hydrocarbon receptor (AhR) (Rattus norvegicus, UniProt P41738); assay: CALUX luciferase reporter bioassay, H4L1.1c4 rat hepatoma cells (4 DREs); assay type: cell-based; conditions: H4L1.1c4 rat (4 DREs)
T1 construct: endogenous in cells; host or cells: H4L7.5c2, H4L1.1c4 and DR-CALUX (H4L1.1c10, H4IIe-based) recombinant rat hepatoma cells
T1 sequence (P41738 10-853): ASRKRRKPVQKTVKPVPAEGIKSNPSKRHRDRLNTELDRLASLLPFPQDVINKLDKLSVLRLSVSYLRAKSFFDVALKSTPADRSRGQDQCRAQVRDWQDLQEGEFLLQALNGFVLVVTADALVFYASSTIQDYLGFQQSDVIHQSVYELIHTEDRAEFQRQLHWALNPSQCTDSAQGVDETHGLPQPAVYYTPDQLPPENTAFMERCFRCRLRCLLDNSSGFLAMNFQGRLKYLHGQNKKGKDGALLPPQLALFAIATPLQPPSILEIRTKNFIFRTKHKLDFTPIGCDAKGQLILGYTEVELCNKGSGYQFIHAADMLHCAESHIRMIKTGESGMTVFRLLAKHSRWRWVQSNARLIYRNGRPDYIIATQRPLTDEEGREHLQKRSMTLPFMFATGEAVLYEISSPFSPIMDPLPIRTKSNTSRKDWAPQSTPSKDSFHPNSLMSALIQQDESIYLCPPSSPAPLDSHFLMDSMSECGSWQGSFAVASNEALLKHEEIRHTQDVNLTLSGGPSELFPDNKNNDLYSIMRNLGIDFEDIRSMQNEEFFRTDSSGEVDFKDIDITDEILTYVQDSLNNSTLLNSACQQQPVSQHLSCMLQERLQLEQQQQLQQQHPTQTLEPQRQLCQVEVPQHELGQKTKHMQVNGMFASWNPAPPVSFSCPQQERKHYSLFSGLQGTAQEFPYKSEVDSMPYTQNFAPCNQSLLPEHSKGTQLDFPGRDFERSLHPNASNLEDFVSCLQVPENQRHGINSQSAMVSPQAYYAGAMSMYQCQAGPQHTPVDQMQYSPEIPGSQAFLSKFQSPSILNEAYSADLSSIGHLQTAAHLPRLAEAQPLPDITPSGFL
Description: (§1) A “3rd generation” H4L7.5c2 recombinant rat hepatoma CALUX cell line that contains a stably transfected AhR-responsive firefly luciferase reporter gene under control of 20 dioxin responsive elements (DREs) was utilized in this study. […] H4L7.5c2 rat and other CALUX cell lines, such as H4L1.1c4 rat and […] mouse hepatoma cells (each with 4 DREs), or “3rd generation” H1L7.5c3 mouse hepatoma cells (20 DREs), are freely available for non-profit research purposes and can be obtained from Prof. Denison. These cells are also available for commercial and government screening purposes through a licensing agreement with the Hiyoshi Corporation, Omihachiman, Japan (www.calux-jp.com/english/).
(§2) We compared both key indicators of assay performance, calibrator bias and imprecision, and the resulting working range for H4L7.5c2 rat hepatoma cells (this study) with those obtained using various other cell lines (4 DREs: H4L1.1c4 rat, DR-CALUX rat, H1L6.1c2 mouse hepatoma cells; 20 DREs: H1L7.5c3 mouse hepatoma cells) previously evaluated (Table 2). Commercially available DR-CALUX cells, a recombinant rat hepatoma (H4IIe)-based cell line (H4L1.1c10), were obtained from BioDetection Systems (The Netherlands). When using CALUX cell lines that contain 4 DREs, the lower limit of working range (LLOW), or the concentration above which results may be reported, is typically close to 1 pmol/L if both RLU-based and concentration-based criteria for bias and imprecision are fulfilled (assay working range B in Table 2). […] When utilizing H1L7.5c3 mouse hepatoma cells, which also contain 20 DREs, the LLOW equals 0.3 pmol/L, as well. However, the range in which assay concentrations match all criteria for bias and imprecision is smaller with an upper limit of working range (ULOW) of just 10 pmol/L. It follows that the “3rd generation” H4L7.5c2 rat hepatoma cells provide the most suitable working range of the assay for low sample concentrations, regardless of whether only the current EU RLU-based imprecision requirements are met or whether bias-related and concentration-based criteria are additionally observed (Table 2).
(§3) While absolute induction is driven by the efficiency of gene expression, fold induction is the ratio between the cell response (RLU) induced by a calibration standard, or by AhR-active dioxin-like compounds present in a sample extract, and the unspecific assay background response (RLU). […] Furthermore, the Chi-square-to-degrees of freedom ratio (χ^2/DF, with χ^2 ~ WSSR) known to be a stand-alone index characterizing the quality of a model fit is provided for each cell line. […] The latter is the case for each cell line (Table 3). […] An explanation can be found in the fact that triplicate standard deviations were used as rough estimates.

[2] = molecular target: T2, aryl hydrocarbon receptor (AhR) (Mus musculus, UniProt P30561); assay: CALUX luciferase reporter bioassay, H1L6.1c2 mouse hepatoma cells (4 DREs); assay type: cell-based; conditions: H1L6.1c2 mouse (4 DREs)
Description: as §2, §3

[3] = molecular target: T1, aryl hydrocarbon receptor (AhR); assay: CALUX luciferase reporter bioassay, H4L7.5c2 rat hepatoma cells (20 DREs); assay type: cell-based
Description: as §1
Exposure of H4L7.5c2 rat cells to dioxins, dioxin-like compounds, and other AhR agonists results in induction of luciferase reporter gene expression in a time-, concentration-, AhR-, and chemical-specific manner. The AhR signal transduction pathway in the CALUX bioassay and the molecular mechanism of activation of gene expression by 2,3,7,8-TCDD and related AhR agonists have been described in detail elsewhere. The level of luciferase expression in CALUX cell lines is directly related to the overall concentration of added AhR activators.
H4L7.5c2 rat cells of defined sub-confluent density (60–70%) were harvested with trypsin and homogeneously suspended in cell culture medium (α-MEM) containing 10% (v/v) FBS. Cells were counted in a haemocytometer, then seeded in 96-well white clear bottom culture plates (Corning, New York, USA) at approximately 25,000 cells/well. After 1 h of pre-incubation at ambient conditions in a biosafety cabinet, the cells were grown for 20–24 h at 37 °C in the presence of 5% CO2.
Individual concentrations of a 2,3,7,8-TCDD-standard dilution series (generating assay concentrations of 0.0, 0.1, 0.3, 1.0, 3.0, 10, 30, 300, and 3000 pmol/L) and the sample extracts (both in DMSO) were first added to incubation medium and mixed, and the mixtures subsequently added in triplicate to 96-well plates containing H4L7.5c2 cells. The ability of the bioassay target compounds to adhere to the walls and bottom of the wells can lead to cells in individual wells of a triplicate being dosed with slightly different amounts of AhR-active compounds, leading to increased triplicate RSD values. Well-to-well variability of the cell response also further depends on edge effects commonly observed across 96-well microplates. For a given cell system, inhomogeneous dosing of triplicates and edge effects are some of the main drivers for the assay working range, within which triplicate RSD values are subject to defined limitations (RSD < 15%). Especially, its bottom end should be as low as possible for the present application. Each batch of plates was therefore pre-tested for satisfactorily low and reproducible edge effects. The latter was further reduced by a 1 h pre-incubation under ambient conditions in the safety cabinet immediately after seeding the cells, resulting in an even distribution of the cells in each well. The plates were then placed in an incubator on a 1.5 mm-thin copper sheet on top of the incubator shelf. Copper not only has bactericidal properties, but being a fast heat conductor, it also helps to avoid the formation of patterns in the measured cell response (another type of "edge effects"), caused by temperature gradients near heat-radiating walls or by occasional opening of the incubator door. For preparing the dose media, we applied a validated, fast, and reproducible pipetting procedure followed by thorough re-mixing immediately before dosing the cells only into the inner 60 wells of 96-well plates. Cell culture medium was added to the cells in the 36 outer wells to maintain a balanced atmosphere above all wells allowing homogeneous evaporation rates across the plate during incubation. […]

[4] = molecular target: T1, aryl hydrocarbon receptor (AhR); assay: DR-CALUX luciferase reporter bioassay, recombinant rat hepatoma (H4IIe)-based cells (4 DREs); assay type: cell-based; conditions: DR-CALUX rat (4 DREs)
Description: as §2, §3

[5] = set-up: method as in PMID 15083163; conditions: adult humans; cited from earlier work
[6] = molecular target: T2, aryl hydrocarbon receptor (AhR); assay: CALUX luciferase reporter bioassay, H1L7.5c3 mouse hepatoma cells (20 DREs); assay type: cell-based; conditions: H1L7.5c3 mouse (20 DREs)
Description: as §1, §2, §3

[7] = tested on: aryl hydrocarbon receptor (AhR); set-up: method as in PMID 33614386, PMID 18969555, PMID 18969548; conditions: CALUX; relative to 2,3,7,8-TCDD; cited from earlier work
[8] = H4L7.5c2 rat (20 DREs), 5-PL fit by WSSR regression

T2 sequence (P30561 10-848): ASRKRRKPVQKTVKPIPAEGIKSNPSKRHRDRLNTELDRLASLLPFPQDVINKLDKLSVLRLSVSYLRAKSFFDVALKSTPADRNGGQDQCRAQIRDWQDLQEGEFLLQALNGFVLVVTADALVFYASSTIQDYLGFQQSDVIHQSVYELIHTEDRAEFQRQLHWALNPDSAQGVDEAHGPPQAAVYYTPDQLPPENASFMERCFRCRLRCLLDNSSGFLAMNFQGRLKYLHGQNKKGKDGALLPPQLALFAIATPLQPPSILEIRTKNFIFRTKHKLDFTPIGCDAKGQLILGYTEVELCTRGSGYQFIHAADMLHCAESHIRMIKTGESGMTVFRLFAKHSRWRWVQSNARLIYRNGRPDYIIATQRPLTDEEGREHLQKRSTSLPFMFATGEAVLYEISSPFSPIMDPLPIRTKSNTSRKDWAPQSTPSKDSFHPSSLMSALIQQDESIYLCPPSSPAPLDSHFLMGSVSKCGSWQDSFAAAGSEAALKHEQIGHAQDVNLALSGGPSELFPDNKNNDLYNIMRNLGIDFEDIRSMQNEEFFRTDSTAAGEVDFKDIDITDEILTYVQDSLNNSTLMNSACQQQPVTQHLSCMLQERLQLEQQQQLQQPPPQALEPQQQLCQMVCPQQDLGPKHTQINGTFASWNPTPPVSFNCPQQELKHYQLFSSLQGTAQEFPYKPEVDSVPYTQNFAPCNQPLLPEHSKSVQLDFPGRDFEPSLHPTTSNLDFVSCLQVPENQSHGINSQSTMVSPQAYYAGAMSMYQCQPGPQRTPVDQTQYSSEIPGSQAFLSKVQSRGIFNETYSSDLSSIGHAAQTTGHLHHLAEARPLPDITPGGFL
T2 sequence (P53762 2-791 partner): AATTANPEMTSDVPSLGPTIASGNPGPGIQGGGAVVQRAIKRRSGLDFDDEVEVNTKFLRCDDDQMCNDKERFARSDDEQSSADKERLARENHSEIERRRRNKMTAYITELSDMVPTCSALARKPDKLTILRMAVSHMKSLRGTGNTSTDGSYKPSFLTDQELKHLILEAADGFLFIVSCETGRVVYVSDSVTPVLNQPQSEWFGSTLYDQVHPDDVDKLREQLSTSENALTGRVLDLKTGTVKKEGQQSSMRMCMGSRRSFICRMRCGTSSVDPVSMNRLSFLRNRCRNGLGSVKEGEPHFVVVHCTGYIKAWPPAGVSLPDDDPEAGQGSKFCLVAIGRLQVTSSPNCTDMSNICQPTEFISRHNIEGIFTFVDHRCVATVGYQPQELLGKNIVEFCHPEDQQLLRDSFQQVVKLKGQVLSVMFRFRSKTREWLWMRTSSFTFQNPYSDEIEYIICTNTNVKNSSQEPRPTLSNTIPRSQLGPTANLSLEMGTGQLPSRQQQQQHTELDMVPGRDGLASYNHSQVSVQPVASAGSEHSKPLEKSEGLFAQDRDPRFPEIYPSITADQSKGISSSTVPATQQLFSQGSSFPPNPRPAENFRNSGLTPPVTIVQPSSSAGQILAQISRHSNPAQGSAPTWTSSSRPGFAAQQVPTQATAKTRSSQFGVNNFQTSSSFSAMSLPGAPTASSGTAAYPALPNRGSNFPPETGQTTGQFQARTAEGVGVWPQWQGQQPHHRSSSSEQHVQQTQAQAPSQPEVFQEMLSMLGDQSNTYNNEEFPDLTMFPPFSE

Q: With `Clc1cc2c(cc1Cl)Oc1cc(Cl)c(Cl)cc1O2` [2,3,7,8-TCDD, 2,3,7,8-tetrachlorodibenzo-p-dioxin] as the molecule, how does the “Fold induction at 0.3 pmol/L” value ([1]; 0.3 pmol/L) read?
A: The value was 1.33.

Q: What about the “Fold induction at 1.0 pmol/L” value ([1]; 1.0 pmol/L) of the same molecule?
A: Its value is 2.44.

Q: What about the “Asymmetry factor (e)” value ([1]; 5-PL fit) of the same molecule?
A: Its value is 1.81.

Q: And the EC50 ([1]; 5-PL fit by WSSR regression)?
A: The EC50 was 0.00552 nM.

Q: And the EC70 ([1]; 5-PL fit by WSSR regression)?
A: The EC70 was 0.0198 nM.

Q: And the “Inflection point (c)” value ([1]; 5-PL fit by WSSR regression)?
A: Its value is 3.67 pmol/L.

Q: What about the Maximum fold induction ([1]; 5-PL fit by WSSR regression) of the same molecule?
A: Its Maximum fold induction is 20.6.

Q: What about the “Slope (b)” value ([1]; Hill coefficient of 5-PL fit) of the same molecule?
A: The value was 0.90.

Q: What about the “Fold induction at 0.3 pmol/L” value ([2]; 0.3 pmol/L) of the same molecule?
A: Its value is 1.12.

Q: And the “Fold induction at 1.0 pmol/L” value ([2]; 1.0 pmol/L)?
A: Its value is 1.56.

Q: And the “Asymmetry factor (e)” value ([2]; 5-PL fit)?
A: The value was 1.42.

Q: What about the EC70 ([2]; 5-PL fit by WSSR regression) of the same molecule?
A: The EC70 was 0.0505 nM.

Q: And the “Inflection point (c)” value ([2]; 5-PL fit by WSSR regression)?
A: The value was 15.0 pmol/L.

Q: What about the Maximum fold induction ([2]; 5-PL fit by WSSR regression) of the same molecule?
A: Its Maximum fold induction is 31.2.

Q: And the “Slope (b)” value ([2]; Hill coefficient of 5-PL fit)?
A: The value was 1.03.

Q: And the EC50 ([2]; H1L6.1c2 mouse hepatoma CALUX cells (4 DREs), 5-PL fit by WSSR regression)?
A: Its EC50 is 0.0235 nM.

Q: And the “Fold induction at 0.3 pmol/L” value ([3]; H4L7.5c2 rat (20 DREs), 0.3 pmol/L)?
A: The value was 1.46.

Q: What about the “Fold induction at 1.0 pmol/L” value ([3]; H4L7.5c2 rat (20 DREs), 1.0 pmol/L) of the same molecule?
A: Its value is 4.47.

Q: And the “Asymmetry factor (e)” value ([3]; H4L7.5c2 rat (20 DREs), 5-PL fit)?
A: The value was 1.51.

Q: What about the EC50 [3, 8] of the same molecule?
A: The EC50 was 0.0114 nM.

Q: And the EC70 [3, 8]?
A: The EC70 was 0.0223 nM.

Q: And the “Inflection point (c)” value [3, 8]?
A: The value was 7.22 pmol/L.

Q: And the Maximum fold induction [3, 8]?
A: Its Maximum fold induction is 136.

Q: What about the “Slope (b)” value ([3]; H4L7.5c2 rat (20 DREs), Hill coefficient of 5-PL fit) of the same molecule?
A: The value was 1.17.

Q: And the Maximum response ([3]; H4L7.5c2 rat hepatoma cells, corrected for the assay background response, 5-PL fit)?
A: The Maximum response was 4730 RLUs.

Q: And the “Fold induction at 0.3 pmol/L” value ([4]; 0.3 pmol/L)?
A: The value was 1.16.

Q: What about the “Fold induction at 1.0 pmol/L” value ([4]; 1.0 pmol/L) of the same molecule?
A: Its value is 1.53.

Q: And the “Asymmetry factor (e)” value ([4]; 5-PL fit)?
A: The value was 0.63.

Q: And the EC50 ([4]; 5-PL fit by WSSR regression)?
A: The EC50 was 0.00789 nM.

Q: What about the EC70 ([4]; 5-PL fit by WSSR regression) of the same molecule?
A: Its EC70 is 0.014 nM.

Q: What about the “Inflection point (c)” value ([4]; 5-PL fit by WSSR regression) of the same molecule?
A: The value was 12.0 pmol/L.

Q: And the Maximum fold induction ([4]; 5-PL fit by WSSR regression)?
A: The Maximum fold induction was 8.75.

Q: What about the “Slope (b)” value ([4]; Hill coefficient of 5-PL fit) of the same molecule?
A: The value was 1.70.

Q: What about the half-life [5] of the same molecule?
A: Its half-life is 3 to 10 years.

Q: What about the “Fold induction at 0.3 pmol/L” value ([6]; 0.3 pmol/L) of the same molecule?
A: Its value is 1.10.

Q: And the “Fold induction at 1.0 pmol/L” value ([6]; 1.0 pmol/L)?
A: Its value is 1.62.

Q: What about the “Asymmetry factor (e)” value ([6]; 5-PL fit) of the same molecule?
A: Its value is 1.15.

Q: And the EC70 ([6]; 5-PL fit by WSSR regression)?
A: The EC70 was 0.00921 nM.

Q: And the “Inflection point (c)” value ([6]; 5-PL fit by WSSR regression)?
A: Its value is 4.63 pmol/L.

Q: And the Maximum fold induction ([6]; 5-PL fit by WSSR regression)?
A: Its Maximum fold induction is 10.5.

Q: What about the “Slope (b)” value ([6]; Hill coefficient of 5-PL fit) of the same molecule?
A: Its value is 1.48.

Q: What about the EC50 ([6]; H1L7.5c3 mouse hepatoma CALUX cells (20 DREs), 5-PL fit by WSSR regression) of the same molecule?
A: Its EC50 is 0.00528 nM.

Q: With `Clc1ccc(-c2cc(Cl)c(Cl)c(Cl)c2)cc1Cl` [PCB 126] as the molecule, how does the “Relative potency (REP) or response of the cell bioassay compared to the response to 2,3,7,8-TCDD” value [7] read?
A: Its value is “approximately 40%”.
